Assay results reported in ChEMBL document CHEMBL1275440, “In vitro activity of telavancin against resistant gram-positive bacteria” (2008).
Values after ≈ are worked out from the molar mass of the structure shown. Active and inactive are the calls of the source. The rule behind the calls is not given here.

Key:
Format in all cases: functional
[1] = system: Staphylococcus aureus; test: Antibacterial activity against methicillin resistant Staphylococcus aureus MED 2028 osteomyelitis isolate assessed as bacterial count at 2 ug/ml after 4 hrs by time-kill assay
[2] = system: Staphylococcus aureus; test: Antibacterial activity against methicillin resistant Staphylococcus aureus MED 2028 osteomyelitis isolate assessed as bacterial count at 2 ug/ml after 2 hrs by time-kill assay
[3] = system: Staphylococcus aureus; test: Antibacterial activity against methicillin resistant Staphylococcus aureus MED 2028 osteomyelitis isolate assessed as bacterial count at 1 ug/ml after 24 hrs by time-kill assay
[4] = system: Staphylococcus epidermidis; test: Antibacterial activity against methicillin resistant Staphylococcus epidermidis ATCC 35984 by broth microdilution method
[5] = system: Enterococcus faecalis; test: Antibacterial activity against vancomycin resistant Enterococcus faecalis VanA clinical isolate by broth microdilution method
[6] = system: Streptococcus viridans; test: Antibacterial activity against Streptococcus viridans clinical isolate by broth microdilution method
[7] = system: Streptococcus intermedius; test: Antibacterial activity against Streptococcus intermedius clinical isolate by broth microdilution method
[8] = system: Streptococcus pneumoniae; test: Antibacterial activity against penicillin intermediate Streptococcus pneumoniae clinical isolate by broth microdilution method
[9] = system: Staphylococcus saprophyticus; test: Antibacterial activity against methicillin resistant coagulase-negative Staphylococcus saprophyticus clinical isolate by broth microdilution method
[10] = Antibacterial activity against methicillin resistant coagulase-negative Staphylococcus hominis subsp. novobiosepticus clinical isolate by broth microdilution method
[11] = system: Streptococcus pyogenes; test: Antibacterial activity against Streptococcus pyogenes MED 2040 assessed as bacterial count at 0.5 ug/ml after 2 hrs by time-kill assay
[12] = system: Streptococcus pyogenes; test: Antibacterial activity against Streptococcus pyogenes MED 2040 assessed as bacterial count at 2 ug/ml after 24 hrs by time-kill assay
[13] = system: Streptococcus pyogenes; test: Antibacterial activity against Streptococcus pyogenes MED 2040 assessed as bacterial count at 8 ug/ml after 2 hrs by time-kill assay
[14] = system: Streptococcus pyogenes; test: Antibacterial activity against Streptococcus pyogenes MED 2040 assessed as bacterial count at 8 ug/ml after 24 hrs by time-kill assay
[15] = system: Enterococcus faecalis; test: Antibacterial activity against Enterococcus faecalis ATCC 51575 assessed as bacterial count at 2 ug/ml after 24 hrs by time-kill assay
[16] = system: Enterococcus faecalis; test: Antibacterial activity against Enterococcus faecalis ATCC 51575 assessed as bacterial count at 8 ug/ml after 24 hrs by time-kill assay
[17] = system: Streptococcus pyogenes; test: Antibacterial activity against Streptococcus pyogenes MED 2040 assessed as bacterial count at […] after 8 hrs by time-kill assay
[18] = system: Streptococcus pyogenes; test: Antibacterial activity against Streptococcus pyogenes MED 2040 assessed as bacterial count at […] after 2 hrs by time-kill assay
[19] = system: Streptococcus agalactiae; test: Antibacterial activity against Streptococcus agalactiae MED 2038 assessed as bacterial count at 8 ug/ml after 24 hrs by time-kill assay
[20] = system: Streptococcus agalactiae; test: Antibacterial activity against Streptococcus agalactiae MED 2038 assessed as bacterial count at 8 ug/ml after 4 hrs by time-kill assay
[21] = system: Streptococcus agalactiae; test: Antibacterial activity against Streptococcus agalactiae MED 2038 assessed as bacterial count at 8 ug/ml after 2 hrs by time-kill assay
[22] = system: Streptococcus agalactiae; test: Antibacterial activity against Streptococcus agalactiae MED 2038 assessed as bacterial count at 2 ug/ml after 24 hrs by time-kill assay
[23] = system: Streptococcus agalactiae; test: Antibacterial activity against Streptococcus agalactiae MED 2038 assessed as bacterial count at 2 ug/ml after 4 hrs by time-kill assay
[24] = system: Streptococcus agalactiae; test: Antibacterial activity against Streptococcus agalactiae MED 2038 assessed as bacterial count at […] after 2 hrs by time-kill assay
[25] = system: Streptococcus pneumoniae; test: Antibacterial activity against multidrug resistant Streptococcus pneumoniae MED 1090 assessed as bacterial count at 8 ug/ml after 8 hrs by time-kill assay
[26] = system: Streptococcus pneumoniae; test: Antibacterial activity against multidrug resistant Streptococcus pneumoniae MED 1090 assessed as bacterial count at 8 ug/ml after 2 hrs by time-kill assay
[27] = system: Streptococcus pneumoniae; test: Antibacterial activity against multidrug resistant Streptococcus pneumoniae MED 1090 assessed as bacterial count at 2 ug/ml after 8 hrs by time-kill assay
[28] = system: Streptococcus pneumoniae; test: Antibacterial activity against multidrug resistant Streptococcus pneumoniae MED 1090 assessed as bacterial count at 2 ug/ml after 4 hrs by time-kill assay
[29] = system: Streptococcus pneumoniae; test: Antibacterial activity against multidrug resistant Streptococcus pneumoniae MED 1090 assessed as bacterial count at 2 ug/ml after 2 hrs by time-kill assay
[30] = system: Streptococcus pneumoniae; test: Antibacterial activity against multidrug resistant Streptococcus pneumoniae MED 1090 assessed as bacterial count at […] after 24 hrs by time-kill assay
[31] = system: Streptococcus pneumoniae; test: Antibacterial activity against multidrug resistant Streptococcus pneumoniae MED 1090 assessed as bacterial count at 0.06 ug/ml after 8 hrs by time-kill assay
[32] = system: Streptococcus pneumoniae; test: Antibacterial activity against multidrug resistant Streptococcus pneumoniae MED 1090 assessed as bacterial count at 0.06 ug/ml after 4 hrs by time-kill assay
[33] = system: Streptococcus pneumoniae; test: Antibacterial activity against multidrug resistant Streptococcus pneumoniae MED 1090 assessed as bacterial count at 0.03 ug/ml after 4 hrs by time-kill assay
[34] = system: Staphylococcus epidermidis; test: Antibacterial activity against methicillin resistant Staphylococcus epidermidis ATCC 35984 assessed as bacterial count at 16 ug/ml after 8 hrs by time-kill assay
[35] = system: Staphylococcus epidermidis; test: Antibacterial activity against methicillin resistant Staphylococcus epidermidis ATCC 35984 assessed as bacterial count at 8 ug/ml after 4 hrs by time-kill assay
[36] = system: Staphylococcus epidermidis; test: Antibacterial activity against methicillin resistant Staphylococcus epidermidis ATCC 35984 assessed as bacterial count at 4 ug/ml after 24 hrs by time-kill assay
[37] = system: Staphylococcus epidermidis; test: Antibacterial activity against methicillin resistant Staphylococcus epidermidis ATCC 35984 assessed as bacterial count at 4 ug/ml after 4 hrs by time-kill assay
[38] = system: Staphylococcus epidermidis; test: Antibacterial activity against methicillin resistant Staphylococcus epidermidis ATCC 35984 assessed as bacterial count at 2 ug/ml after 4 hrs by time-kill assay
[39] = system: Staphylococcus epidermidis; test: Antibacterial activity against methicillin resistant Staphylococcus epidermidis ATCC 35984 assessed as bacterial count at 2 ug/ml after 2 hrs by time-kill assay
[40] = system: Staphylococcus aureus; test: Antibacterial activity against methicillin resistant Staphylococcus aureus MED 1805 bloodstream isolate assessed as bacterial count at 16 ug/ml after 8 hrs by time-kill assay
[41] = system: Staphylococcus aureus; test: Antibacterial activity against methicillin resistant Staphylococcus aureus MED 1805 bloodstream isolate assessed as bacterial count at 16 ug/ml after 2 hrs by time-kill assay
[42] = system: Staphylococcus aureus; test: Antibacterial activity against methicillin resistant Staphylococcus aureus MED 1805 bloodstream isolate assessed as bacterial count at 1 ug/ml after 8 hrs by time-kill assay
[43] = system: Staphylococcus aureus; test: Antibacterial activity against methicillin resistant Staphylococcus aureus MED 1805 bloodstream isolate assessed as bacterial count at 1 ug/ml after 2 hrs by time-kill assay

With `CCCCCCCCCCNCCN[C@@]1(C)C[C@H](O[C@H]2[C@H](Oc3c4cc5cc3Oc3ccc(cc3Cl)[C@@H](O)[C@@H](NC(=O)[C@@H](CC(C)C)NC)C(=O)N[C@@H](CC(N)=O)C(=O)N[C@H]5C(=O)N[C@H]3C(=O)N[C@H](C(=O)N[C@H](C(=O)O)c5cc(O)c(CNCP(=O)(O)O)c(O)c5-c5cc3ccc5O)[C@H](O)c3ccc(c(Cl)c3)O4)O[C@H](CO)[C@@H](O)[C@@H]2O)O[C@@H](C)[C@H]1O` [TELAVANCIN] the log10CFU/ml [1] was 1.6, the log10CFU/ml [2] was 0.6 and the log10CFU/ml [3] was 2.1. For the same compound, the MIC [4] was 1 µg/mL (≈ 0.57 µM), the MIC50 [5] was 8 µg/mL (≈ 4.56 µM) and the MIC90 [5] was 16 µg/mL (≈ 9.11 µM). For the same compound, the MIC [6] was 0.015 µg/mL (≈ 0.00854 µM), the MIC50 [6] was “inactive” and the MIC90 [6] was “inactive”. For the same compound, the MIC [7] was 0.015 µg/mL (≈ 0.00854 µM), the MIC50 [7] was “inactive” and the MIC90 [7] was “inactive”. For the same compound, the MIC50 [8] was 0.015 µg/mL (≈ 0.00854 µM), the MIC90 [8] was 0.06 µg/mL (≈ 0.0342 µM) and the MIC50 [9] was 0.5 µg/mL (≈ 0.285 µM). For the same compound, the MIC90 [9] was 1 µg/mL (≈ 0.57 µM), the MIC50 [10] was 0.5 µg/mL (≈ 0.285 µM) and the MIC90 [10] was 1 µg/mL (≈ 0.57 µM). The log10CFU/ml [11] was 0.9, the log10CFU/ml [12] was 3.1 and the log10CFU/ml [13] was 0.6. For the same compound, the log10CFU/ml [14] was 2.7, the log10CFU/ml [15] was 0.8 and the log10CFU/ml [16] was 1. It also gave a log10CFU/ml [17] of 0.5, a log10CFU/ml [18] of 0.4 and a log10CFU/ml [19] of 3.7. The log10CFU/ml [20] was 0.9, the log10CFU/ml [21] was 1.1 and the log10CFU/ml [22] was 2.7. It also gave a log10CFU/ml [23] of 0.8, a log10CFU/ml [24] of 1 and a log10CFU/ml [25] of 2.6. It also gave a log10CFU/ml [26] of 1.2, a log10CFU/ml [27] of 3.4 and a log10CFU/ml [28] of 3. It also gave a log10CFU/ml [29] of 1.8, a log10CFU/ml [30] of 3.4 and a log10CFU/ml [31] of 3.4. For the same compound, the log10CFU/ml [32] was 2.1, the log10CFU/ml [33] was 2.7 and the log10CFU/ml [34] was 3.3. For the same compound, the log10CFU/ml [35] was 2.7, the log10CFU/ml [36] was 3.3 and the log10CFU/ml [37] was 1.8. The log10CFU/ml [38] was 0.03, the log10CFU/ml [39] was 0.2 and the log10CFU/ml [40] was 2.9. It also gave a log10CFU/ml [41] of 0.7, a log10CFU/ml [42] of 3.2 and a log10CFU/ml [43] of 0.9.
